Holding throughout (assay type): cell-based
In one experiment the test system is hnRNP-K. Briefly: Immunofluorescence of hnRNP-K cellular location in Ghost(3) cells. As for the experimental part: (§1) For each experiment, Ghost(3) cells or IPSC-derived primary macrophages were infected or treated with 500 nM Doxorubicin on coverslips, fixed for 10 mins in fresh 4% paraformaldehyde at room temperature, then washed 3 times in PBS and permeabilised for 10 mins in ice-cold methanol at […]. Coverslips were washed once in PBS and incubated in blocking buffer (5% goat serum, 0.3% TritonX100 in PBS) for 60 mins at room temperature. Cells were incubated in primary antibody solution (1% BSA, 0.3% Triton X100 in PBS) overnight at 4° C. Double strand breaks were detected using rabbit polyclonal anti-phosphohistone H2A.X Ser139 (Cell Signaling). Activated ATM was detected using rabbit monoclonal anti-phosphoATM Ser1981 (Cell Signaling). The ability of p53 to regulate apoptosis was detected using rabbit polyclonal antiphosphop53 Ser46 (Cell Signaling). Viral p24 was detected using mouse monoclonal anti-HIV1p24 (AIDS Research and Reference Reagent Program, Division of AIDS, NIAID, NIH). HuR was detected using mouse monoclonal anti-HuR 3A2 (Santa Cruz Biotechnology). hnRNPK was detected using goat polyclonal anti-hnRNPK P20 (Santa Cruz Biotechnology). Coverslips were washed 3 times (5 mins each on an orbital shaker) with wash buffer (0.05% Tween20 in PBS), followed by incubation with secondary antibodies conjugated to either Atto550 or Atto565 or Atto647 for 60 mins at room temperature. Coverslips were washed 3 times (5 mins each on an orbital shaker) with wash buffer (0.05% Tween20 in PBS). Coverslips were incubated in equilibration buffer (0.4% glucose, 2×SCC) for 5 mins and counter stained with 1 mg/ml DAPI (4′,6-diamidino-2-phenylindole; Life Technologies). Coverslips were mounted in glox buffer (3.7 mg/ml glucose oxidase, 1 U catalase) and imaged.
For each experiment, cells were infected or treated with drugs on coverslips, fixed for 10 mins in fresh 4% paraformaldehyde at room temperature, then washed 3 times in PBS and permeabilised for 10 mins in ice-cold methanol at −20° C. Coverslips were washed once in PBS and incubated in blocking buffer (5% goat serum, 0.3% Triton-X100 in PBS) for 60 mins at room temperature. Cells were incubated in primary antibody solution (1% BSA, 0.3% Triton X-100 in PBS) overnight at 4° C. Double strand breaks were detected using rabbit polyclonal anti-phospho-histone H2A.X Ser139 (Cell Signaling). Activated ATM was detected using rabbit monoclonal anti-phospho-ATM Ser1981 (Cell Signaling). The ability of p53 to regulate apoptosis was detected using rabbit polyclonal anti-phospho-p53 Ser46 (Cell Signaling). Viral p24 was detected using mouse monoclonal anti-HIV-1-p24 (AIDS Research and Reference Reagent Program, Division of AIDS, NIAID, NIH). HuR was detected using mouse monoclonal anti-HuR 3A2 (Santa Cruz Biotechnology). hnRNP-K was detected using goat polyclonal anti-hnRNP-K P-20 (Santa Cruz Biotechnology). Coverslips were washed 3 times (5 mins each on an orbital shaker) with wash buffer (0.05% Tween-20 in PBS), followed by incubation with secondary antibodies conjugated to either Atto-550 or Atto-565 or Atto-647 for 60 mins at room temperature. Coverslips were washed 3 times (5 mins each on an orbital shaker) with wash buffer (0.05% Tween-20 in PBS). Coverslips were incubated in equilibration buffer (0.4% glucose, 2×SCC) for 5 mins and counter stained with 1 mg/ml DAPI (4′,6-diamidino-2-phenylindole; Life Technologies). Coverslips were mounted in glox buffer (3.7 mg/ml glucose oxidase, 1 U catalase) and imaged.

A further experiment concerns HIV-1. Nature of the experiment: HIV-1 infection/replication in Ghost(3) reporter cells (LTR-driven GFP expression). As to conditions: Ghost(3) cells exposed to HIV-1 and treated.
The test system of the next experiment is Ghost(3) cells. The conditions noted are these: for apoptosis of HIV-infected cells: HIV-infected Ghost(3) cells exposed to inhibitor (10 μM), 30 hours post-infection. As to the method: Apoptosis was measured in Ghost(3) cells 30 hours post-infection or drug treatment using the NucView™ 488 Caspase3 Assay Kit (Biotium) in a 96 well format. Data was analysed in MATLAB using a probabilistic region method to measure cell attachment and expressed as percentage cell survival. […] An average of 3000 cells per condition were analysed with the exception of cells treated with Doxorubicin followed by HIV-infection (FIG. 3), cells transfected with lincRNAp21 overexpression constructs followed by Doxorubicin treatment, and cells transfected with full-length lincRNAp21, infected with HIV1 and treated with Nutlin3 (FIG. 25). These latter conditions ( ? ) yielded too few attached cells (<20) at 30 hours for similar analysis.
Apoptosis was measured in Ghost(3) cells 30 hours post-infection or drug treatment using the NucView™ 488 Caspase-3 Assay Kit (Biotium) in a 96 well format. Data was analysed in MATLAB using a probabilistic region method to measure cell attachment and expressed as percentage cell survival. […] An average of 3000 cells per condition were analysed with the exception of cells treated with Doxorubicin followed by HIV-infection (FIG. 27), cells transfected with lincRNA-p21 overexpression constructs followed by Doxorubicin treatment (FIG. 36), and cells transfected with full-length lincRNA-p21, infected with HIV-1 and treated with Nutlin3 (FIG. 45). These latter conditions ( ? ) yielded too few attached cells (<20) at 30 hours for similar analysis.

The next experiment relates to HuR. Nature of the experiment: Immunofluorescence of HuR cellular location in Ghost(3) cells. The conditions noted are these: HIV-infected Ghost(3) cells with inhibitor added (10 μM). As to the method: as §1, with “Coverslips were washed 3 times (5 mins each on an orbital shaker) with wash buffer (0.05% Tween20 in PBS), followed by incubation with secondary antibodies conjugated to either Atto550 or Atto565 or Atto647 for 60 mins at room temperature. Coverslips were washed 3 times (5 mins each on an orbital shaker) with wash buffer (0.05% Tween20 in PBS). Coverslips were incubated in equilibration buffer (0.4% glucose, 2×SCC) for 5 mins and counter stained with 1 mg/ml DAPI (4′,6-diamidino-2-phenylindole; Life Technologies). Coverslips were mounted in glox buffer (3.7 mg/ml glucose oxidase, 1 U catalase) and imaged.” left out
For each experiment, cells were infected or treated with drugs on coverslips, fixed for 10 mins in fresh 4% paraformaldehyde at room temperature, then washed 3 times in PBS and permeabilised for 10 mins in ice-cold methanol at −20° C. […] Double strand breaks were detected using rabbit polyclonal anti-phospho-histone H2A.X Ser139 (Cell Signaling). Activated ATM was detected using rabbit monoclonal anti-phospho-ATM Ser1981 (Cell Signaling). The ability of p53 to regulate apoptosis was detected using rabbit polyclonal anti-phospho-p53 Ser46 (Cell Signaling). Viral p24 was detected using mouse monoclonal anti-HIV-1-p24 (AIDS Research and Reference Reagent Program, Division of AIDS, NIAID, NIH). HuR was detected using mouse monoclonal anti-HuR 3A2 (Santa Cruz Biotechnology). hnRNP-K was detected using goat polyclonal anti-hnRNP-K P-20 (Santa Cruz Biotechnology). […]

[1] abbreviates: Ghost(3) cells exposed to HIV-1 and concurrently treated with 10 μM antiretroviral.
[2] abbreviates: HIV-infected Ghost(3) cells exposed to MAP2K1 or ERK2 inhibitor (10 μM), 30 hours post-infection.
Setting [3] is: cells transfected 24 hours with full-length or truncated lincRNA-p21, then Nutlin3a, absence of HIV-1.
Setting [4] is: full-length lincRNA-p21 transfected 24 hours, HIV-1 infected 24 hours, then Nutlin3a.
Where [5] appears, read: truncated lincRNA-p21 transfected 24 hours, HIV-1 infected 24 hours, then Nutlin3a.

The record followed here is US10143691B2, “Pathogenic control of apoptosis” (CSIR, priority 2014, dated 2018).

“Also recorded” adds a separate entry of the source. Read-outs that look alike come from different tables or passages of the source.

Method for HIV-1: Viral stocks were titred using TZMBI cells and used to infect Ghost(3) cells using an MOI=1.0, or IPSO-derived macrophages using an MOI=0.5. Where indicated, Ghost(3) cells were treated with 10 μM of either Raltegravir, Maraviroc, Tenofovir (AIDS Research and Reference Reagent Program, Division of AIDS, NIAID, NIH) or Nutlin3a (Sigma) for up to 48 hours.
Viral stocks were titred using TZM-BI cells and used to infect Ghost(3) cells using an MOI=1.0, or IPSO-derived macrophages using an MOI=0.5. Where indicated, cells were treated with 10 μM of either Raltegravir, Maraviroc, Tenofovir (AIDS Research and Reference Reagent Program, Division of AIDS, NIAID, NIH) or Doxorubicin (Sigma-Aldrich), or Nutlin3a (Sigma-Aldrich), or MAP2K1 inhibitor (U-0126) or ERK2 inhibitor (FR180204) for up to 48 hours.

As to `C[C@H](Cn1cnc2c(N)ncnc21)OCP(=O)(O)O` [Tenofovir], the “cellular location of hnRNP-K” value in the experiment with hnRNP-K (setting [1]) is “no nuclear hnRNPK”.
With Maraviroc, the “cellular location of hnRNP-K” value in the experiment on hnRNP-K (setting [1]) is “no nuclear hnRNPK”. In addition, in the experiment on HIV-1, the “HIV-1 infection / replication (GFP expression)” value is given as “remained uninfected”.
Regarding `Nc1n[nH]c2nnc(-c3c(-c4ccccc4)nn4ccccc34)cc12` [ERK2 inhibitor, 5-(2-phenylpyrazolo[1,5-a]pyridin-3-yl)-1H-pyrazolo[3,4-c]pyridazin-3-amine], the “apoptosis of HIV-infected cells” value in the experiment with Ghost(3) cells was “infected cells underwent apoptosis”. Also, the “cellular location of HuR” value with HuR is “Cytoplasmic HuR is not observed; also recorded: HIV-1 able to sequester HuR in the nucleus”. Besides, the “cellular location of hnRNP-K” value with hnRNP-K (setting [2]) is listed as “strong nuclear localisation of hnRNP-K”.
For the compound `N#CC(=C(N)Sc1ccccc1N)C(C#N)=C(N)Sc1ccccc1N` [MAP2K1 inhibitor, 1,4-diamino-2,3-dicyano-1,4-bis(2-aminophenylthio)butadiene], the “apoptosis of HIV-infected cells” value with Ghost(3) cells is reported as “infected cells underwent apoptosis”. The “cellular location of HuR” value in the experiment on HuR is given as “cytoplasmic (and nuclear) HuR”. Besides, in the experiment with hnRNP-K (setting [2]), the “cellular location of hnRNP-K” value was “strong nuclear localisation of hnRNP-K”.
`COc1ccc(C2=NC(c3ccc(Cl)cc3)C(c3ccc(Cl)cc3)N2C(=O)N2CCNC(=O)C2)c(OC(C)C)c1` (single isomer, unassigned; (-)) [Nutlin3a, (−)-4-(4,5-Bis(4-chlorophenyl)-2-(2-isopropoxy-4-methoxyphenyl)-4,5-dihydro-1H-imidazole-1-carbonyl)piperazin-2-one]: the apoptosis result in the experiment with Ghost(3) cells (setting [3]) is given as “no apoptosis”; in the experiment with Ghost(3) cells (setting [4]) it was “undergo apoptosis within 24 hours of Nutlin3a addition; also recorded: underwent apoptosis”; in the experiment with Ghost(3) cells (setting [5]), “do not undergo apoptosis; also recorded: did not undergo apoptosis”. Also, the “cellular location of hnRNP-K” value is “nuclear localisation of hnRNP-K at 48 hours in GFP-positive cells only; also recorded: nuclear localisation of hnRNPK in HIV-infected cells only; also recorded: nuclear localisation of hnRNP-K in HIV-infected cells only; also recorded: nuclear localisation of hnRNPK at 48 hours in GFP-positive cells only” in the experiment on hnRNP-K (Ghost(3) cells, Nutlin3a (10 μM) added 24 hours post HIV-1 infection); “cytoplasmic hnRNP-K; also recorded: no nuclear hnRNPK; also recorded: no nuclear hnRNP-K; also recorded: cytoplasmic hnRNPK” in the experiment on hnRNP-K (Ghost(3) cells, drug only, no HIV infection); “no nuclear hnRNPK was observed” in the experiment on hnRNP-K (Nutlin3a added prior to HIV1 infection); “cytoplasmic hnRNPK; also recorded: cytoplasmic hnRNP-K” in the experiment with hnRNP-K (setting [3]); “showed nuclear hnRNP-K; also recorded: show nuclear hnRNPK” in the experiment with hnRNP-K (setting [4]); “show nuclear hnRNP-K; also recorded: also showed nuclear hnRNPK; also recorded: also showed nuclear hnRNP-K; also recorded: show nuclear hnRNPK” in the experiment on hnRNP-K (setting [5]).
